Results as given in PubChem BioAssay (NCI).
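A five-concentration, 48-hour dose response in 96-well plates underlies each endpoint, interpolated linearly between surrounding concentrations. The concentration for full growth arrest is given as TGI.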 Where a SMILES comes first, the peptide text is derived from it. [ ]: non-standard residue; d: D form. The star is where a group is joined. ξ: configuration not given here. ξD = NC(CC(=O)O)C(=O)O; Ac3c = NC1(C(=O)O)CC1; Boc = CC(C)(C)OC(=O)*; OBn = c1ccc(CO*)cc1

How the values were obtained:
Assay in all cases: inhibition of tumour cell growth, NCI panel, 48 h
[1] = tested on: A498 renal
[2] = tested on: M14 melanoma
[3] = tested on: UO-31 renal
[4] = tested on: SF-539 CNS
[5] = tested on: SF-268 CNS
[6] = tested on: T-47D breast
[7] = tested on: CCRF-CEM leukemia
[8] = tested on: HS 578T breast
[9] = tested on: OVCAR-4 ovarian
[10] = tested on: OVCAR-3 ovarian

SMILES	TGI [1]	TGI [2]	TGI [3]	TGI [4]	TGI [5]	TGI [6]	TGI [7]	TGI [8]	TGI [9]	TGI [10]
Cc1nccn1S(=O)(=O)c1ccc(Br)cc1Br	> 100 µM	39.7 µM	68.7 µM	41.4 µM	> 100 µM	> 100 µM	98.3 µM	> 100 µM	> 100 µM	55.4 µM
C1#Cc2ccccc2OCCOc2ccccc2C#Cc2ccccc2OCCOc2ccccc21	37.8 µM	> 100 µM	> 100 µM	–	46.3 µM	> 100 µM	36.3 µM	64.3 µM	30.6 µM	39.3 µM
COc1ccc(/C=C2\CC3C4CC=C5C[C@@H](O)CC[C@]5(C)C4CC[C@]3(C)\C2=N\O)cc1OC (stereo partly drawn)	86.2 µM	> 100 µM	9.97 µM	> 100 µM	> 100 µM	> 100 µM	> 100 µM	> 100 µM	> 100 µM	8.74 µM
N#Cc1c(N2CCCC2)ncn(Cc2ccccc2)c1=S	> 100 µM	> 100 µM	> 100 µM	> 100 µM	> 100 µM	> 100 µM	> 100 µM	> 100 µM	> 100 µM	> 100 µM
C=CCN(c1cc(OCc2ccccc2)c(NC(C)=O)cc1[N+](=O)[O-])S(C)(=O)=O	41.6 µM	> 100 µM	> 100 µM	31.8 µM	51.3 µM	> 100 µM	> 100 µM	56.7 µM	> 100 µM	> 100 µM
Cc1cc(Nc2ccc(N=Nc3ccc(O)c4ncccc34)cc2)nc(C)n1	46.1 µM	36.1 µM	36.5 µM	20.6 µM	> 51.9 µM	35.6 µM	7.22 µM	> 59.4 µM	71.7 µM	> 29.5 µM
CC(NC1=NCCO1)c1cccc([N+](=O)[O-])c1 (stereo not drawn)	> 100 µM	> 100 µM	> 100 µM	> 100 µM	> 100 µM	> 100 µM	> 100 µM	> 100 µM	> 100 µM	> 100 µM
COC(=O)c1ccc(CCc2cc(O)ccc2O)cc1	> 96.7 µM	27.8 µM	7.04 µM	19.6 µM	> 36.6 µM	7.91 µM	> 26.8 µM	> 39.5 µM	24.4 µM	12.1 µM
NCCNCCCCCCNC(=O)c1cccc2cc3ccccc3nc12	9.49 µM	3.6 µM	17.2 µM	3.88 µM	9.93 µM	21.5 µM	7.26 µM	6 µM	4.7 µM	7.16 µM
Cc1ccc(-n2c(O)c3c(N)n[nH]c3c(C#N)c2=O)cc1	> 100 µM	> 100 µM	> 100 µM	> 100 µM	> 100 µM	> 100 µM	> 100 µM	> 100 µM	> 100 µM	> 100 µM
COC(=O)C1(NC(=O)C(CC(=O)OCc2ccccc2)NC(=O)OC(C)(C)C)CC1 (stereo not drawn) (Boc-[ξD](OBn)-[Ac3c]-OMe)	> 100 µM	> 100 µM	> 100 µM	> 100 µM	> 100 µM	> 100 µM	> 100 µM	> 100 µM	> 100 µM	> 100 µM
O=C1CCC2(CC1CCSc1ccccc1)OCCO2 (stereo not drawn)	> 100 µM	> 100 µM	> 100 µM	> 100 µM	> 100 µM	> 100 µM	> 100 µM	> 100 µM	> 100 µM	> 100 µM
CCOC(=O)C1=C(C)C(C(=O)OC)/C(=C/c2cccc3cccnc23)C1=O (stereo not drawn)	> 10 µM	> 10 µM	> 10 µM	> 10 µM	> 10 µM	> 10 µM	> 10 µM	> 10 µM	> 10 µM	> 10 µM
N#CC(C#N)=Cc1c(O)ccc2ccccc12	31.1 µM	28.3 µM	28.5 µM	29.1 µM	33.1 µM	46.4 µM	5.17 µM	55.5 µM	43.6 µM	27.4 µM
CN(C)CCOC(=O)c1ccc(N)cc1	> 100 µM	34.8 µM	> 100 µM	–	> 100 µM	> 100 µM	69.8 µM	> 100 µM	> 100 µM	> 100 µM
